# Measurements published in US7792665B2, “Method for designing a compound based on the three dimensional structure of phosphoinositide dependent protein kinase 1 (PDK1)” (Medical Research Council, priority 2002, dated 2010).
# Where a SMILES comes first, the peptide text is derived from it. [ ]: non-standard residue; d: D form. pT = C[C@@H](OP(=O)(O)O)[C@H](N)C(=O)O
# Target: T1, PDK1[T148A] (Homo sapiens, UniProt O15530, T148A)
# T1 sequence (O15530 1-556 T148A): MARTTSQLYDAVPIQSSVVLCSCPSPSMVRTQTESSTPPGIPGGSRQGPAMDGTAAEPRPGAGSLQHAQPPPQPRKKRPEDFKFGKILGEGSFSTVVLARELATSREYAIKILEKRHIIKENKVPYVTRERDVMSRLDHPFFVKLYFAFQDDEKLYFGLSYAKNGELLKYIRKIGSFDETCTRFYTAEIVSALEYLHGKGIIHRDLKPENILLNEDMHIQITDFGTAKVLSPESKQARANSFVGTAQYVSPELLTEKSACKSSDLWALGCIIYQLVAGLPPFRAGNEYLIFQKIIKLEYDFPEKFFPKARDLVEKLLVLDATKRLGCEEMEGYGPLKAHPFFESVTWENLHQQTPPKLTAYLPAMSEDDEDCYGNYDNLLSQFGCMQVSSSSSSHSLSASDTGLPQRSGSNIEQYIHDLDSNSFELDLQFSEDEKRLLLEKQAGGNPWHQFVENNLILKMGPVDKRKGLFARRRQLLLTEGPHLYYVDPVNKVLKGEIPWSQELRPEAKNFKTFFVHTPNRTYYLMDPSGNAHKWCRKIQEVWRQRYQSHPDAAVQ
# Assay: PDK1 catalytic activity towards T308tide, activation by peptides, PDK1[T148A]
# Type: biochemical
# Design: made in house
# Settings: T308tide substrate
# Procedure: C. Activation of the indicated forms of PDK1 by 56K-pHM and S6K-HM. PDK1 activity was measured using the peptide substrate (T308tide) in the presence of the indicated concentrations of 56K-pHM (closed circles) and S6K-HM (open circles) as described in the methods. Assays were performed in triplicate and similar results obtained in 2 separate experiments. The results are the average—SD for a single experiment.
# The ability of wild type and mutant PDK1 to phosphorylate the synthetic peptide T308tide ([…] ([Biondi et al., 2000]) (SEQ ID NO:108) was carried out in 30 μl assays containing 100 ng of wild type or mutant PDK1, 50 mM Tris/HCl pH 7.5, 0.1% 13-mercaptoethanol, 10 mM MgCl2, 100 μM [32γ P]ATP (200 cpm/pmol), 0.5 μM microcystin-LR, 1 mM T308tide in the presence or absence of the indicated concentrations of the 56K-pHM peptide ([…](P)YVAPSV) (SEQ ID NO:104) or 56K-HM. peptide ([…]) (SEQ ID NO:105). After incubation for 10 min at 30° C., 25 μl of the resultant mixture was spotted into P81 phosphocellulose paper (2×2 cm) and the papers washed and analysed as described previously for assays of MAP kinase. Control assays were carried out in parallel in which either PDK1, or peptide substrate were omitted; these values were always less than 5% of the activity measured in the presence of these reagents. […]
compound,measurement,value
CC(C)C[C@H](NC(=O)[C@H](Cc1ccccc1)NC(=O)[C@@H](NC(=O)[C@H](CCC(N)=O)NC(=O)[C@H](CC(N)=O)NC(=O)[C@H](C)NC(=O)[C@H](CO)NC(=O)[C@H](CCC(=O)O)NC(=O)[C@@H](N)CO)C(C)C)C(=O)NCC(=O)N[C@@H](Cc1ccccc1)C(=O)N[C@H](C(=O)N[C@@H](Cc1ccc(O)cc1)C(=O)N[C@H](C(=O)N[C@@H](C)C(=O)N1CCC[C@H]1C(=O)N[C@@H](CO)C(=O)N[C@H](C(=O)O)C(C)C)C(C)C)[C@@H](C)OP(=O)(O)O [S6K-pHM] (H-SESANQVFLGF[pT]YVAPSV-OH; N-terminus and C-terminus assumed),activation of PDK1[T148A],activated similarly as wild type PDK1
